A short description of this data set: Adsorption of drugs: recovery from supernatant by ESI-MS after incubation on glass, coated or uncoated polystyrene. The class given is physicochemical. Conditions: 100 nM drug, FIG. 4, samples stored in glass vials up to 3 days.

Experimental: Different concentrations of the drugs were dissolved in 2 ml H2O from a stock solution of 0.5 mM in 50% acetonitrile/50% H2O, and added to coated or uncoated polystyrene containers (2 mL solution added to each circular container of diameter 33 mm) as well as glass containers acting as reference material. Drug concentrations up to 250 nM were investigated. At different time points 250 μL of supernatant was sampled for analysis. […] The samples were analyzed by ESI-MS using 50% H2O/50% MeOH/0.1% acetic acid running buffer (0.1 mL/min).
The effectiveness of the low-binding Bz+NHS-PEG coatings were probed by extended incubation of coated and uncoated polystyrene in 100 nM solutions of drugs spanning a wide range of hydrophobicity. Glass surfaces were included as reference to the polystyrene. The supernanants of the incubation solutions were sampled at different time points, and the drug concentrations determined by electrospray ionization mass spectrometry (ESI-MS) after addition of an internal standard.
The recovery was calculated as the ratio of the drug concentration in the supernatant to the initially added drug concentration.

With `CCCCc1oc2ccccc2c1C(=O)c1cc(I)c(OCCN(CC)CC)c(I)c1` [amiodarone], the “adsorption on glass surface” value is given as “large adsorption even on the glass surface”.

The record behind these values is US10519339B2, “Method for applying a coating to a polymeric substrate” (Sophion Bioscience A/S, priority 2012, dated 2019).
